Measured values: patent publication US6495591B1, “Fungal efflux pump inhibitors” (Essential Therapeutics, Inc., priority 1997, dated 2002)
Where two headings read alike, the source gives them in different places.

Key:
[1] = biological target: pCDRI (ABC) efflux pump in S. cerevisiae YEM-1 (Candida albicans, UniProt P43071); experiment: cell-based; type: cell-based, C. albicans
[2] = biological target: pCDR2 (ABC) efflux pump in S. cerevisiae YEM-37 (Candida albicans, UniProt P78595); experiment: cell-based; type: cell-based, C. albicans
[3] = biological target: pCgCDR (ABC) efflux pump in S. cerevisiae YEM-39 (Candida glabrata, UniProt Q6FK23); experiment: cell-based; type: cell-based, C. glabrata
[4] = biological target: pBEN (MF) efflux pump in S. cerevisiae YEM-2 (Candida albicans, UniProt P28873); experiment: cell-based; type: cell-based, C. albicans
[5] = biological target: pFLU (MF) efflux pump in S. cerevisiae YEM-38 (Candida albicans, UniProt G1UB37); experiment: cell-based; type: cell-based, C. albicans
[6] = system: pCgBEN (MF) efflux pump in S. cerevisiae YEM-40; type: cell-based, C. glabrata; conditions: YEM-40 pCgBEN; fluconazole fixed at FLUhalf 2.8
[7] = system: YEM 13 C. albicans BEN up; experiment: microbe, parasite or virus in culture; type: cell-based; conditions: YEM 13, 24 hrs, 80% inhibition; for MIC of compound in the presence of fluconazole (+): 1/8 × MIC of fluconazole
[8] = system: YEM 15 C. albicans, CDR1CDR2 up; experiment: microbe, parasite or virus in culture; type: cell-based; conditions: YEM 15, 24 hrs, 80% inhibition; for MIC of compound in the presence of fluconazole (+): 1/8 × MIC of fluconazole
YEM 53 C. krusei = experiment: FEPI MIC with/without 1/8 fluconazole MIC at 24 hrs (Table 11); type: cell-based; conditions: for MIC of compound in the absence of fluconazole (−): YEM 53, 24 hrs, 80% inhibition
[9] = system: YEM 17 C. glabrata, CgCDR up; type: cell-based; conditions: 24 hrs, 80% inhibition; for MIC of compound in the presence of fluconazole (+): 1/8 × MIC of fluconazole
YEM 51 C. glabrata wt = experiment: FEPI MIC with/without 1/8 fluconazole MIC at 24 hrs (Table 11); type: cell-based; conditions: for MIC of compound in the absence of fluconazole (−): YEM 51, 24 hrs, 80% inhibition
YEM 30 C. albicans wt = experiment: as above; type: cell-based; conditions: for MIC of compound in the absence of fluconazole (−): YEM 30, 24 hrs, 80% inhibition
[10] = system: YEM 24 C. albicans ΔCDR1, ΔCDR2; experiment: microbe, parasite or virus in culture; type: cell-based; conditions: YEM 24, 24 hrs, 80% inhibition; for MIC of compound in the presence of fluconazole (+): 1/8 × MIC of fluconazole
[11] = system: YEM 27 C. albicans ΔCDR1ΔCDR2 ΔBENΔFLU1; experiment: microbe, parasite or virus in culture; type: cell-based; conditions: YEM 27, 24 hrs, 80% inhibition; for MIC of compound in the presence of fluconazole (+): 1/8 × MIC of fluconazole
Aspergillus fumigatus = experiment: FEPI MICs in combination with 1/4 the azole's MIC (Table 12); type: cell-based; conditions: for FEPI MIC with itraconazole, 60% Inh / FEPI MIC with itraconazole, 80% Inh: itraconazole 0.063 μg/ml (1/4 MIC); for FEPI MIC with itraconazole, 60% Inh / FEPI MIC with ketoconazole, 60% Inh: 60% inhibition; for FEPI MIC with itraconazole, 80% Inh / FEPI MIC with ketoconazole, 80% Inh / FEPI MIC (alone): 80% inhibition; for FEPI MIC with ketoconazole, 60% Inh / FEPI MIC with ketoconazole, 80% Inh: ketoconazole 4 μg/ml (1/4 MIC); for FEPI MIC (alone): no azole, 35° C., CM Broth
Procedure: The combinations were tested against a series of Candida strain with known expression of efflux pumps or with complete deletion of all known pumps and Aspergillus fumigatus. Results are reported as minimum inhibitory concentration (MIC) of […] in the presence or absence of […]. A total of 27 distinct milbemycins were studied.

[12] = read-out: FEPIhalf (concentration needed to reduce activity of efflux pump by 50%), YEM-1 pCDRI, fluconazole fixed at FLUhalf 5.6
[13] = read-out: FEPIhalf (concentration needed to reduce activity of efflux pump by 50%), YEM-37 pCDR2, fluconazole fixed at FLUhalf 1
[14] = read-out: FEPIhalf (concentration needed to reduce activity of efflux pump by 50%), YEM-39 pCgCDR, fluconazole fixed at FLUhalf 4
[15] = read-out: FEPIhalf (concentration needed to reduce activity of efflux pump by 50%), YEM-2 pBEN, fluconazole fixed at FLUhalf 5.6
[16] = read-out: FEPIhalf (concentration needed to reduce activity of efflux pump by 50%), YEM-38 pFLU, fluconazole fixed at FLUhalf 2

pFLU (MF) efflux pump in S. cerevisiae YEM-38, sequence (G1UB37 whole entry): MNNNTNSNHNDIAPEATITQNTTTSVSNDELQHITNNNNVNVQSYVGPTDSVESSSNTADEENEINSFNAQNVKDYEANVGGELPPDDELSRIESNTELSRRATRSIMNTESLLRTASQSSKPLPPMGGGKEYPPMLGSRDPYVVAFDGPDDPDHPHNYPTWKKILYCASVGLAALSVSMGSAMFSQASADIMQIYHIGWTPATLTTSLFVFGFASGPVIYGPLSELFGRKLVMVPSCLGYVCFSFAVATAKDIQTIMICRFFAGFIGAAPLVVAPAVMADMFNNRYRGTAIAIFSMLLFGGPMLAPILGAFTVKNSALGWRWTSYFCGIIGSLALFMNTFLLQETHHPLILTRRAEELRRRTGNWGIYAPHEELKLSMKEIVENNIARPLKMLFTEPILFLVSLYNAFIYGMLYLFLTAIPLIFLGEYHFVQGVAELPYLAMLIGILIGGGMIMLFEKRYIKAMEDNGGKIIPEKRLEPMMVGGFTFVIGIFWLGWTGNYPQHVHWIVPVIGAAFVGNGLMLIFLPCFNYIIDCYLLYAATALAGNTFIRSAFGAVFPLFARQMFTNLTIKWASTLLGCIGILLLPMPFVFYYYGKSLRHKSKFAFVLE
pCDR2 (ABC) efflux pump in S. cerevisiae YEM-37, sequence (P78595 whole entry): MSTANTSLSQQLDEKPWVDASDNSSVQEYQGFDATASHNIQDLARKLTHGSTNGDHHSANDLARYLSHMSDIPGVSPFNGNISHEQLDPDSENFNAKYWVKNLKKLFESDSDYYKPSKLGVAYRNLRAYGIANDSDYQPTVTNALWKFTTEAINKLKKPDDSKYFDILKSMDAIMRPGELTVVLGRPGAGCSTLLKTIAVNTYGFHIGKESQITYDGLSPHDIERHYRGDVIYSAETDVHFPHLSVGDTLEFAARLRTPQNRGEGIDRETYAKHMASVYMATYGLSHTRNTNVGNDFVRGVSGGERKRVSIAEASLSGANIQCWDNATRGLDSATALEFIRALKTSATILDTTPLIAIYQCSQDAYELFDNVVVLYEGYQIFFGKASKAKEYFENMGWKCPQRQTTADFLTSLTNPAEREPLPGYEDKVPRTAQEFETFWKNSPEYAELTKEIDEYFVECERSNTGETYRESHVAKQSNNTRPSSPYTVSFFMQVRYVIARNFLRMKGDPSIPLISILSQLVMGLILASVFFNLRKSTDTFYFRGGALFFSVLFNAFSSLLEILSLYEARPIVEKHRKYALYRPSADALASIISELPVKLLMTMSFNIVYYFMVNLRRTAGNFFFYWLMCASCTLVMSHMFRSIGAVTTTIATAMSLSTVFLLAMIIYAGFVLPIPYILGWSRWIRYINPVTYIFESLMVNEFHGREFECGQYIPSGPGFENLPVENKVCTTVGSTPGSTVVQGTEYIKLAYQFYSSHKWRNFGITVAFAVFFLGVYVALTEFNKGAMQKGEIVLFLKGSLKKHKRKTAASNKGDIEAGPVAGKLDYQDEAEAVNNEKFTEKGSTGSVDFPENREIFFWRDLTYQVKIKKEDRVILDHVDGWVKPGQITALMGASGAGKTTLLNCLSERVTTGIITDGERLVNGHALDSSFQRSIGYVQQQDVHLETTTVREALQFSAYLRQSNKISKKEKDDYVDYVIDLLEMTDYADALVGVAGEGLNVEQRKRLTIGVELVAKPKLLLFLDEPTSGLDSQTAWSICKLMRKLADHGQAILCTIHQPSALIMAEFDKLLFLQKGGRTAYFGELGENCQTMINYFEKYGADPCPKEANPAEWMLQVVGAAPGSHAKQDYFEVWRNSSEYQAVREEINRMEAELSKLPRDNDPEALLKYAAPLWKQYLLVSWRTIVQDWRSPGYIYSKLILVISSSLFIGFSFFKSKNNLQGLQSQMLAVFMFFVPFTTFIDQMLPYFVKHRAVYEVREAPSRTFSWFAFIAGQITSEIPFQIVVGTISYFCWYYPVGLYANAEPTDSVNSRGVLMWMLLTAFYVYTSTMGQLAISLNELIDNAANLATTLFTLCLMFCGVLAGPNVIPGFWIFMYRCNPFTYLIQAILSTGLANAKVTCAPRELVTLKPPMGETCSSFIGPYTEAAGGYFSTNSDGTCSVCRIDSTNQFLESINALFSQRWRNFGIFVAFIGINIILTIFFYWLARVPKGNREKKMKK
pCgCDR (ABC) efflux pump in S. cerevisiae YEM-39, sequence (Q6FK23 whole entry): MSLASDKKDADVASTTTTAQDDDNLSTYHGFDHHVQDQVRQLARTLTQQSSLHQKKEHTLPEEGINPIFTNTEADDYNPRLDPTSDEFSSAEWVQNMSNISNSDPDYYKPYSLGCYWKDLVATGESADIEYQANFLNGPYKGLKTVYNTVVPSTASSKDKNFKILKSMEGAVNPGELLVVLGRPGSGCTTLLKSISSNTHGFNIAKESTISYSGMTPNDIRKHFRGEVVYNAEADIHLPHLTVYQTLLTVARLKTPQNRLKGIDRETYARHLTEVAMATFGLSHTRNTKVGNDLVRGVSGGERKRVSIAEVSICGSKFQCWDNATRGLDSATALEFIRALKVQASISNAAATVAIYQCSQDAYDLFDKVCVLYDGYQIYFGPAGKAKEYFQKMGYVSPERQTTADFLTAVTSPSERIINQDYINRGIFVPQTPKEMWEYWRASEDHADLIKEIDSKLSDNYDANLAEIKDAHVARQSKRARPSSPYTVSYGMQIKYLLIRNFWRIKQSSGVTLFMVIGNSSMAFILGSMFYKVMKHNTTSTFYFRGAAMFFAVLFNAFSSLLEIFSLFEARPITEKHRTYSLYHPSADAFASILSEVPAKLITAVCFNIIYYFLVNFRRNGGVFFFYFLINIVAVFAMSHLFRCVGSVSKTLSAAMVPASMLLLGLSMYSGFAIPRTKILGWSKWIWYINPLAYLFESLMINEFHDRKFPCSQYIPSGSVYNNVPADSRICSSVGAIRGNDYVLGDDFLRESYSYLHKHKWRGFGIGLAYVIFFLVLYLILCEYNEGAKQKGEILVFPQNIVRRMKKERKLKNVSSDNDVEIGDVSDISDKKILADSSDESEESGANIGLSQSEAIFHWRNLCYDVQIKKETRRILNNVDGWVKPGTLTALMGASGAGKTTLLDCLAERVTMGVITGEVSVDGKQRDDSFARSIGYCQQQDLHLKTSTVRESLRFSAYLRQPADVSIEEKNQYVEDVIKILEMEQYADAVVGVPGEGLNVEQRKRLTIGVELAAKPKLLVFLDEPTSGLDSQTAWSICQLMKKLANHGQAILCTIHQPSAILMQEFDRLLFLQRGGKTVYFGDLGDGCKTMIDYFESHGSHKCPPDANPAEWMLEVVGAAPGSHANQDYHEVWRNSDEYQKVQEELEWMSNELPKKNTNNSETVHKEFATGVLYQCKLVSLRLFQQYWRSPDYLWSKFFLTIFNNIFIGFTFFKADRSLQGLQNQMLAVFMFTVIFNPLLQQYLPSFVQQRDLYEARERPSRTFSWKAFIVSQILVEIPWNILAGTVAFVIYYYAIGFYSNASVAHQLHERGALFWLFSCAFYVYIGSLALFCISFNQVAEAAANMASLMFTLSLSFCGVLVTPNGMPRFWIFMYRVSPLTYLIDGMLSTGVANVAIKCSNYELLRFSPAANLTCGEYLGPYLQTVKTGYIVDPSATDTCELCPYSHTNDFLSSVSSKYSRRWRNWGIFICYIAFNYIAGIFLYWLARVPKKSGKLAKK
pCDRI (ABC) efflux pump in S. cerevisiae YEM-1, sequence (P43071 whole entry): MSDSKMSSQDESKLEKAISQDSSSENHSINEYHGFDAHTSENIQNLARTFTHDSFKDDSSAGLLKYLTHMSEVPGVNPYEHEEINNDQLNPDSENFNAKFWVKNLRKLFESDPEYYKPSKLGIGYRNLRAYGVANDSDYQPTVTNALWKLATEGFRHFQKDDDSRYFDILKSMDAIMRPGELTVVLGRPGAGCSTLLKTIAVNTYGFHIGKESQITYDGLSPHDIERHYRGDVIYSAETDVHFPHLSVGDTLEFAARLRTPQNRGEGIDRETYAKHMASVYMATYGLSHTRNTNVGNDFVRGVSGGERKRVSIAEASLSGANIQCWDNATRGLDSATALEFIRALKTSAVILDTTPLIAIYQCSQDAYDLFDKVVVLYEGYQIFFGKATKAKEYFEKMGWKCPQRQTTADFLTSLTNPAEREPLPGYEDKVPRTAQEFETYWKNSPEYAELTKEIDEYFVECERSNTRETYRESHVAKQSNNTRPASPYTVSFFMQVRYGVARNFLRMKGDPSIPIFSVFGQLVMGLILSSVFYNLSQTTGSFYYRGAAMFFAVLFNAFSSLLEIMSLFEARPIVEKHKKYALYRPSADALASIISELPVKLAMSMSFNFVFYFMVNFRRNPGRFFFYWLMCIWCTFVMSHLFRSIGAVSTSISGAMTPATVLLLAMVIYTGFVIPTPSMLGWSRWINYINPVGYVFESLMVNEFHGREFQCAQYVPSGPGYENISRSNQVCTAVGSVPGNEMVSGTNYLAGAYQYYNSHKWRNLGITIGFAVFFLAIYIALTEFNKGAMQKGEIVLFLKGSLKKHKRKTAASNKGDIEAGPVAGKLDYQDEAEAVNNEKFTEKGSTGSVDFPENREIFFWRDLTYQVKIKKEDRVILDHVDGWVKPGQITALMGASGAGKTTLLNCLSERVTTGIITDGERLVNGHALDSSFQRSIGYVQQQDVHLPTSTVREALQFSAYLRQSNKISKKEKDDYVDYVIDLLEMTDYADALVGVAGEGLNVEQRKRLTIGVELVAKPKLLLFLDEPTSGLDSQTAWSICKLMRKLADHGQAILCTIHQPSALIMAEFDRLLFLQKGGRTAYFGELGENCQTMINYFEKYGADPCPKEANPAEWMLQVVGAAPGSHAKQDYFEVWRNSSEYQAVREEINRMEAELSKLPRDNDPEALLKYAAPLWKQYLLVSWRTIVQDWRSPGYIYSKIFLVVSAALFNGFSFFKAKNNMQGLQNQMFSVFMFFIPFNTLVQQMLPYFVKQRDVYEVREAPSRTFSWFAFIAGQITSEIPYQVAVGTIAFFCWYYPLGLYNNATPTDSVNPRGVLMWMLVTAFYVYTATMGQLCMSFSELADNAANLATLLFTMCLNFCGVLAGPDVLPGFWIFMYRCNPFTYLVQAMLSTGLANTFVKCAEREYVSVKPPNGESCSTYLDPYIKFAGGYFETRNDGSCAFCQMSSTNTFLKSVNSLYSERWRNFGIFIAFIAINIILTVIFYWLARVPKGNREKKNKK

| Structure (SMILES) | FEPIhalf (concentration needed to reduce activity of efflux pump by 50%) [6] | MIC of compound in the presence of fluconazole (+) [7] | MIC of compound in the absence of fluconazole (−) [7] | MIC of compound in the presence of fluconazole (+) [8] | MIC of compound in the absence of fluconazole (−) [8] | MIC of compound in the presence of fluconazole (+) (YEM 53 C. krusei) | MIC of compound in the absence of fluconazole (−) (YEM 53 C. krusei) | MIC of compound in the presence of fluconazole (+) [9] | MIC of compound in the absence of fluconazole (−) [9] | MIC of compound in the presence of fluconazole (+) (YEM 51 C. glabrata wt) | MIC of compound in the absence of fluconazole (−) (YEM 51 C. glabrata wt) | MIC of compound in the presence of fluconazole (+) (YEM 30 C. albicans wt) | MIC of compound in the absence of fluconazole (−) (YEM 30 C. albicans wt) | MIC of compound in the presence of fluconazole (+) [10] | MIC of compound in the absence of fluconazole (−) [10] | MIC of compound in the presence of fluconazole (+) [11] | MIC of compound in the absence of fluconazole (−) [11] | FEPI MIC with fluconazole, 60% Inh (Aspergillus fumigatus) | FEPI MIC with fluconazole, 80% Inh (Aspergillus fumigatus) | FEPI MIC with itraconazole, 60% Inh (Aspergillus fumigatus) | also measured |
| --- | --- | --- | --- | --- | --- | --- | --- | --- | --- | --- | --- | --- | --- | --- | --- | --- | --- | --- | --- | --- | --- |
| CO[C@@H]1C(C)=C[C@H]2C(=O)O[C@H]3C[C@@H](C/C=C(\C)C[C@@H](C)/C=C/C=C4\CO[C@H]1[C@@]42O)O[C@@]1(CC[C@H](C)[C@@H](C)O1)C3 [Compound 4, Milbemycin α2] | >64 | > 64 mg/L | > 64 mg/L | ≦0.03 | > 64 mg/L | 8 mg/L | > 64 mg/L | 2 mg/L | > 64 mg/L | 4 mg/L | > 64 mg/L | ≦0.03 | > 64 mg/L | > 64 mg/L | > 64 mg/L | 64 mg/L | > 64 mg/L | 1 | >64 | 2 | IC50 [1]: 0.23 µM; IC50 [2]: 0.461 µM; IC50 [3]: 7.37 µM; IC50 [4]: > 118 µM; IC50 [5]: > 118 µM; FEPI MIC with itraconazole, 80% Inh (Aspergillus fumigatus): >64; FEPI MIC with ketoconazole, 60% Inh (Aspergillus fumigatus): 0.5; FEPI MIC with ketoconazole, 80% Inh (Aspergillus fumigatus): 0.5; FEPI MIC (alone) (Aspergillus fumigatus): >64 |
| CCCCC(C)C(=O)OC1[C@@H](O)[C@]2(C[C@@H]3C[C@@H](C/C=C(\C)C[C@@H](C)/C=C/C=C4\CO[C@@H]5[C@H](OC)C(C)=CC(C(=O)O3)[C@]45O)O2)O[C@H](C)[C@H]1C (stereo partly drawn) [Compound 9, Milbemycin α6] | >64 | > 64 mg/L | > 64 mg/L | 0.125 mg/L | > 64 mg/L | > 64 mg/L | > 64 mg/L | 0.5 mg/L | > 64 mg/L | 1 mg/L | > 64 mg/L | ≦0.03 | > 64 mg/L | > 64 mg/L | > 64 mg/L | > 64 mg/L | > 64 mg/L | 64 | >64 | 1 | IC50 [1, 12]: 2.91 µM; IC50 [2, 13]: > 93.2 µM; IC50 [3, 14]: 1.46 µM; IC50 [4, 15]: > 93.2 µM; IC50 [5, 16]: > 93.2 µM; FEPI MIC with itraconazole, 80% Inh (Aspergillus fumigatus): >64; FEPI MIC with ketoconazole, 60% Inh (Aspergillus fumigatus): ≦0.063; FEPI MIC with ketoconazole, 80% Inh (Aspergillus fumigatus): ≦0.063; FEPI MIC (alone) (Aspergillus fumigatus): >64 |
| CCC(CC)C(=O)OCC1=C[C@H]2C(=O)O[C@H]3C[C@@H](C/C=C(\C)C[C@@H](C)/C=C/C=C4\CO[C@H]([C@@H]1O)[C@@]42O)O[C@@]1(CC[C@H](C)[C@@H](C)O1)C3 [Compound 21, 4a-O-(2-ethyl)butyryl milbemycin α1] | >64 | > 64 mg/L | > 64 mg/L | 1 mg/L | > 64 mg/L | 8 mg/L | > 64 mg/L | 8 mg/L | > 64 mg/L | 8 mg/L | > 64 mg/L | 0.125 mg/L | > 64 mg/L | > 64 mg/L | > 64 mg/L | > 64 mg/L | > 64 mg/L | 8 | 8 | 1 | IC50 [1]: 1.56 µM; IC50 [2]: 6.22 µM; IC50 [3]: > 99.6 µM; IC50 [4]: > 99.6 µM; IC50 [5]: > 99.6 µM; FEPI MIC with itraconazole, 80% Inh (Aspergillus fumigatus): 8; FEPI MIC with ketoconazole, 60% Inh (Aspergillus fumigatus): ≦0.063; FEPI MIC with ketoconazole, 80% Inh (Aspergillus fumigatus): ≦0.063; FEPI MIC (alone) (Aspergillus fumigatus): >64 |
| CO[C@@H]1C(C)=C[C@H]2C(=O)O[C@H]3C[C@@H](C/C=C(\C)C[C@@H](C)/C=C/C=C4\CO[C@H]1[C@@]42O)O[C@]1(C3)C[C@H](O)[C@H](C)[C@@H](/C(C)=C/C(C)C)O1 [Compound 16, LL-F2849λ (nemedectinλ)] | >64 | 64 mg/L | > 64 mg/L | 0.125 mg/L | > 64 mg/L | > 64 mg/L | > 64 mg/L | 32 mg/L | > 64 mg/L | 2 mg/L | > 64 mg/L | ≦0.03 | > 64 mg/L | > 64 mg/L | > 64 mg/L | > 64 mg/L | > 64 mg/L | >64 | >64 | 1 | IC50 [1, 12]: 1.6 µM; IC50 [2, 13]: 0.399 µM; IC50 [3, 14]: 102 µM; IC50 [4, 15]: > 102 µM; IC50 [5, 16]: > 102 µM; FEPI MIC with itraconazole, 80% Inh (Aspergillus fumigatus): >64; FEPI MIC with ketoconazole, 60% Inh (Aspergillus fumigatus): 0.125; FEPI MIC with ketoconazole, 80% Inh (Aspergillus fumigatus): 0.125; FEPI MIC (alone) (Aspergillus fumigatus): >64 |
